Measured values from patent US20260258039A1, “AROMATIC COMPOUND, METHOD FOR PREPARING SAME, AND USE THEREOF IN PREPARATION OF ESTROGEN RECEPTOR DEGRADER” (Hinova Pharmaceuticals Inc., priority 2022, published 2026).
Read-outs that look alike come from different tables or passages of the source.

Key:
Format in all cases: cell-based
[1] = molecular target: T1, ER (Homo sapiens, UniProt P03372); assay: Degradation activities on ER (ELISA) in T47D breast cancer cells; settings: for DC50: concentration required to degrade 50% of the target protein
T1 construct: T47D breast cancer cells were subcultured in cell culture medium; endogenous in cells; host or cells: T47D breast cancer cells
T1 sequence (P03372 1-595): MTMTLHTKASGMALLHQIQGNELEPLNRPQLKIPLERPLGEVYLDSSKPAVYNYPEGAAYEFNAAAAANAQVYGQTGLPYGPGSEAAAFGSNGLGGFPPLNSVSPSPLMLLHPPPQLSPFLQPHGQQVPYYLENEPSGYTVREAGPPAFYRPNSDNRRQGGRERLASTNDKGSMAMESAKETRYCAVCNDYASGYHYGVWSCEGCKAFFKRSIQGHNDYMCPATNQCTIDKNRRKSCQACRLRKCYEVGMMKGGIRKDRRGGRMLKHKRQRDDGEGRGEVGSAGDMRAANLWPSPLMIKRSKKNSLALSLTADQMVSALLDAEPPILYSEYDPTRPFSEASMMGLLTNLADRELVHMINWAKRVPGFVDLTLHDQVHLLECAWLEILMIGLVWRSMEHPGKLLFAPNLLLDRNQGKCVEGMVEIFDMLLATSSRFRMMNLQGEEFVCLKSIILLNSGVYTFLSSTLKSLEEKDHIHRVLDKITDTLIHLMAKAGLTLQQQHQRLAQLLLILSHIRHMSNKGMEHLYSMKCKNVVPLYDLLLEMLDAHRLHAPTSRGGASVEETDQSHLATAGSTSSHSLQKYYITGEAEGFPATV
Method in brief: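 Cellular ER degradation ELISA: compound dosed 24 h on T47D cells (2.5×10^4/well, pre-grown 3 days) at six final levels from 100 nM downward. Remaining ER was detected by HRP-TMB absorbance at 450 nm. Dose-response fitting gave DC50 and Dmax, the maximal percentage degraded.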

[2] = system: MCF-7 breast cancer cells; assay: Inhibition of proliferation of MCF-7 breast cancer cells (agarose culture, CellTiter-Glo 3D)
Protocol: After 1.6% agarose and 0.7% agarose were sterilized at high temperature, they were cooled to around 50° C., and placed in a 42° C. water bath for later use. MCF-7 breast cancer cells were subcultured in complete cell culture medium, and cells in good growth condition were digested and counted for future use. 50 µL of 1.6% agarose mixed with 2× culture medium at a ratio of 1:1 was spread into the bottom of 96-well plate, and allowed to cool and solidify. 0.7% agarose was mixed with diluted cell suspension in a ratio of 1:1, and then 50 µL of the mixture of gel and cells was added to each well, with 2000 cells for each well; the mixture was allowed to cool and solidify at room temperature. 50 μL of culture medium was added to the plate containing cells, and the plate was placed in a 37° C., 5% CO2 incubator and cultured for 24 h. The drug was prepared into 10 mM stock solution with dimethyl sulfoxide (DMSO). The stock solution was diluted in a ratio of 1:3, to obtain 9 concentration gradients. Then, each concentration of compound solution was further diluted with culture medium in 1:250 (to ensure a DMSO concentration of 0.1% in the culture system). Two replicate wells was set for each concentration. 50 μL of the diluted compound solution was added to the cell culture wells (with final concentrations of 10 μM, 3.3 μM, 1.1 μM, 0.37 μM . . . ). The plate was gently shaken for mixing. Additionally, 3 negative control wells only containing cells and 3 blank control wells only containing culture medium were set up (each of the 6 wells was added with 50 μL of DMSO diluted with culture medium in a ration of 1:250). After 15 days of cultivation, the cell plates and CellTiter-Glo 3D Cell Viability were taken out and equilibrated to room temperature in advance. 80 μL of culture medium were aspirated and discarded from the cell plate, and 120 µL of CellTiter-Glo 3D Cell Viability solution was added to each well. The plates were centrifuged at 1200 rpm/min for 5 min, and then placed in the dark and kept for 25 min. The […] were measured using a multi-function microplate reader. The data were analyzed using the Dose-response-inhibition equation in GraphPad Prism8 software, and the IC50 values were obtained, as shown in Table 3.

[3] = molecular target: T1, ER; assay: Degradation activities on ER (Western blotting) in T47D breast cancer cells; settings: 24 h, Western blot
Protocol: T47D breast cancer cells were subcultured in cell culture medium, and the cells in good growth condition were seeded into 6-well plate at 2 mL/well, with 2.5×10^5 cells per well. The cells were incubated overnight in a 37° C. incubator under 5% CO2. The drug was prepared into 10 mM stock solution with dimethyl sulfoxide (DMSO). Prior to use, the stock solution was diluted with DMSO in a ratio of 1:3. […] of the diluted compound was added to the cell culture wells (to ensure a DMSO concentration of 0.1% in the culture system), and each concentration was repeated twice. The plate were gently shaken to mix. Additionally, the negative control wells (containing equal amount of DMSO) and the positive control wells were set up. After 24 hours of culture, the cells were lysed with RIPA cell lysis buffer to extract proteins, and the protein concentration was measured using a BCA kit. The protein loading buffer (5×) was added, and the plate was heated at 100° C. for 5 min. Then, the sample was stored at −20° C. […] of protein collected from each well was loaded onto a polyacrylamide gel for electrophoresis. The protein is transferred from the polyacrylamide gel to a PVDF membrane, blocked with 5% skim milk at room temperature for 1 h, and incubated overnight at 4° C. with primary antibodies Anti-ERα rabbit mAb (CST, Cat #: 8644S) and Anti-GAPDH rabbit mAb (CST, Cat #: 2118L). The membrane was washed three times with TBST solution, with 10 min for each time. The secondary antibody (horseradish peroxidase-labeled goat anti-rabbit IgG) was incubated at room temperature for 2 h, and then the membrane was washed three times with TBST solution, with 10 min for each time. Finally, ECL chromogenic solution was added for color development, and an automatic chemiluminescence instrument was used to take pictures. Images were collected and analyzed.
The degradation activities of the compounds according to the present invention towards ER, as tested by western blotting, are presented in Table 2

[4] = Homo sapiens, MCF7, 360 h, MCF-7 cells, 15 days of cultivation, read-out: IC50
[5] = T47D cells, 24 h, ELISA, maximum percentage of target protein degraded, read-out: Dmax

Structure (SMILES) | DC50 ([1]; T47D cells, 24 h, ELISA) [nM] | IC50 [2, 4] [nM] | Dmax [1, 5] [%] | also measured
O=C1CCC(N2Cc3cc(N4CCC(N5CC6(CCN(c7ccc([C@@H]8c9ccc(O)cc9CC[C@@H]8c8ccccc8F)cc7)CC6)C5)CC4)ccc3C2=O)C(=O)N1 (stereo partly drawn) [Example 22, 3-(5-(4-(7-(4-((1R,2S)-2-(2-fluorophenyl)-6-hydroxyl-1,2,3,4-tetrahydronaphthalen-1-yl)phenyl)-2,7-diazaspiro[3.5]nonane-2-yl)piperidin-1-yl)-1-oxoisoinodolin-2-yl)piperidin-2,6-dione] | < 10 | < 10 |  | 
O=C1CCC(N2Cc3cc(N4CC5(CCN(CC6CCN(c7c(F)cc([C@@H]8c9ccc(O)cc9OC[C@@H]8c8c(F)cccc8F)cc7F)CC6)CC5)C4)ccc3C2=O)C(=O)N1 (stereo partly shown) [Example 40] | < 10 | < 10 |  | 
O=C1CCC(N2Cc3cc(N4CC5(CCN(CC6CCN(c7c(F)cc(C8=C(c9c(F)cccc9F)COc9cc(O)ccc98)cc7F)CC6)CC5)C4)ccc3C2=O)C(=O)N1 (stereo not shown) [Example 42] | < 10 | 11 to 50 | 50 to 75 | 
O=C1CC[C@@H](N2Cc3cc(N4CC5(CCN(CC6CCN(c7c(F)cc([C@@H]8c9ccc(O)cc9OC[C@@H]8c8c(F)cccc8F)cc7F)CC6)CC5)C4)ccc3C2=O)C(=O)N1 [Example 44] | > 100 | > 50 | < 50 | 
O=C1CC[C@H](N2Cc3cc(N4CC5(CCN(CC6CCN(c7c(F)cc([C@@H]8c9ccc(O)cc9OC[C@@H]8c8c(F)cccc8F)cc7F)CC6)CC5)C4)ccc3C2=O)C(=O)N1 [Example 45] | < 10 | < 10 | > 75 | 
O=C1CCC(N2Cc3cc(N4CC5(CCN(CC6CCN(c7c(F)cc([C@@H]8c9ccc(O)cc9OC[C@@H]8c8cccc(F)c8F)cc7F)CC6)CC5)C4)ccc3C2=O)C(=O)N1 (stereo partly drawn) [Example 49, 3-(5-(7-((1-(4-((3S, 4R)-3-(2,3-difluorophenyl)-7-hydroxychroman-4-yl)-2,6-difluorophenyl)piperidin-4-yl)methyl)-2,7-diazaspiro[3.5]nonane-2-yl)-1-oxoisoinodolin-2-yl)piperidin-2,6-one] | < 10 | < 10 |  | 
O=C1CCC(N2Cc3cc(N4CC5(CCN(CC6CCN(c7c(F)cc([C@@H]8c9ccc(O)cc9OC[C@@H]8c8ccccc8F)cc7F)CC6)CC5)C4)ccc3C2=O)C(=O)N1 (stereo partly drawn) [Example 50, 3-(5-(7-((1-(4-((3S,4R)-3-(2-fluorophenyl)-7-hydroxychroman-4-yl)-2,6-difluorophenyl)piperidin-4-yl)methyl)-2,7-diazaspiro[3.5]nonane-2-yl)-1-oxoisoinodolin-2-yl)piperidin-2,6-one] | < 10 |  |  | IC50 ([2]; MCF-7 cells, 15 days of cultivation, read-out: IC50): < 10 nM
O=C1CCC(N2Cc3cc(N4CC5(CN(CC6CCN(c7ccc([C@H]8c9ccc(O)cc9OC[C@H]8c8ccccc8)cc7)CC6)C5)C4)ccc3C2=O)C(=O)N1 (stereo partly drawn) [Example 56, 3-(5-(6-((1-(4-((3R,4S)-7-hydroxyl-3-phenyl-chroman-4-yl)phenyl)piperidin-4-yl)methyl)-2,6-diazaspiro[3.3]heptane-2-yl)-1-oxoisoinodolin-2-yl)piperidin-2,6-one] |  |  |  | Percentage reduction of ER ([3]; compound concentration 1 nM): 59%
O=C1CCC(N2Cc3cc(N4CC(N5CCN(c6ccc([C@@H]7c8ccc(O)cc8CC[C@@H]7c7ccccc7)cc6)CC5)C4)ccc3C2=O)C(=O)N1 (stereo partly drawn) [Example 59, 3-(5-(3-(4-(4-((1R,2S)-6-hydroxyl-2-phenyl-1,2,3,4-tetrahydronaphthalen-1-yl)phenyl)piperazine-1-yl)azetidin-1-yl)-1-oxoisoindol-2-yl)piperidin-2,6-dione] |  |  |  | Percentage reduction of ER ([3]; compound concentration 10 nM): 54%
O=C1CCC(N2Cc3cc(N4CC5(CCN(CC6CCN(c7ccc([C@@H]8c9ccc(O)cc9OC[C@@H]8c8cccc(F)c8)cc7)CC6)CC5)C4)ccc3C2=O)C(=O)N1 (stereo partly drawn) [Example 60, 3-(5-(7-((1-(4-((3,4-cis)-3-(3-fluorophenyl)-7-hydroxyl-chroman-4-yl)phenyl)piperidin-4-yl)methyl)-2,7-diazaspiro[3.5]nonane-2-yl)-1-oxoisoindol-2-yl)piperidin-2,6-dione] | < 10 |  |  | Dmax ([1]; T47D): 50 to 75%; IC50 ([2]; Homo sapiens, MCF7, 360 h): < 10 nM
O=C1CC[C@@H](N2Cc3cc(N4CC5(CCN(CC6CCN(c7ccc([C@@H]8c9ccc(O)cc9OC[C@@H]8c8c(F)cccc8F)cc7F)CC6)CC5)C4)ccc3C2=O)C(=O)N1 [Example 74, (R)-3-(5-(7-((1-(4-((3S,4R)-3-(2,6-difluorophenyl)-7-hydroxychroman-4-yl)-2-fluorophenyl)piperidin-4-yl)methyl)-2,7-diazaspiro[3.5]nonane-2-yl)-1-oxoisoinodolin-2-yl)piperidin-2,6-dione] | > 100 | > 50 | < 50 | 
O=C1CC[C@H](N2Cc3cc(N4CC5(CCN(CC6CCN(c7ccc([C@@H]8c9ccc(O)cc9OC[C@@H]8c8c(F)cccc8F)cc7F)CC6)CC5)C4)ccc3C2=O)C(=O)N1 [Example 75, (S)-3-(5-(7-((1-(4-((3S,4R)-3-(2,6-difluorophenyl)-7-hydroxychroman-4-yl)-2-fluorophenyl)piperidin-4-yl)methyl)-2,7-diazaspiro[3.5]nonane-2-yl)-1-oxoisoinodolin-2-yl)piperidin-2,6-dione] | < 10 | < 10 | > 75 | 
O=C1CCC(N2Cc3cc(N4CC5(CCN(CC6CCN(c7ccc(C8=C(c9c(F)cccc9F)COc9cc(O)ccc98)cc7F)CC6)CC5)C4)ccc3C2=O)C(=O)N1 (stereo not shown) [Example 76, 3-(5-(7-((1-(4-(3-(2,6-difluorophenyl)-7-hydroxyl-2H-chromene-4-yl)-2-fluorophenyl)piperidin-4-yl)methyl)-2,7-diazaspiro[3.5]nonane-2-yl)-1-oxoisoinodolin-2-yl)piperidin-6-dione] | < 10 | < 10 | > 75 | 
